Assay results from ChEMBL document CHEMBL4043251, “Synthesis of conjugates between oxazolidinone antibiotics and a pyochelin analogue” (Bioorg Med Chem Lett, 2017).
Calls of active or inactive are those of the source. The rule behind the calls is not given here.

Experiments:
Pseudomonas aeruginosa = assay: Antibacterial activity against Pseudomonas aeruginosa PAO1 by disc diffusion method; format: functional
[1] = Solubility of the compound in physiological medium; format: physicochemical
[2] = Solubility of the compound in aqueous medium; format: physicochemical; conditions: buffer

SMILES | Activity (Pseudomonas aeruginosa) | solubility [1] | solubility [2]
CC(=O)NC[C@H]1CN(c2ccc(N3CCN(C(=O)OCCOCCOCC(=O)NCCCN4C([C@H]5CSC(c6ccccc6O)=N5)SC[C@H]4C(=O)O)CC3)c(F)c2)C(=O)O1 (stereo partly drawn) | inactive | Insoluble | Insoluble
CC(=O)NC[C@H]1CN(c2ccc(N3CCN(C(=O)CCC(=O)NCCCN4C([C@H]5CSC(c6ccccc6O)=N5)SC[C@H]4C(=O)O)CC3)c(F)c2)C(=O)O1 (stereo partly drawn) | inactive | Insoluble | 
CC(=O)NC[C@H]1CN(c2ccc(N3CCN(C(=O)CNC(=O)OCCOCCOCC(=O)NCCCN4C([C@H]5CSC(c6ccccc6O)=N5)SC[C@H]4C(=O)O)CC3)c(F)c2)C(=O)O1 (stereo partly drawn) | inactive | Insoluble | Insoluble
